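Grown in 96-well plates, cells were treated for 48 hours with each compound at five concentrations. Insufficient inhibition: endpoint recorded as highest concentration tested. At the GI50, growth is halved.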 Calls of active or inactive are those of the source. No stated cut-off is given here; in the data, active = GI50 up to about 1.1 µM and inactive = higher.
Legend:
Assay in all cases: inhibition of tumour cell growth, NCI panel, 48 h
RXF 631 = system: RXF 631
LXFL 529 = system: LXFL 529
MDA-N = system: MDA-N
DU-145 = system: DU-145
MDA-MB-435 = system: MDA-MB-435
Hs-578T = system: Hs-578T
SR = system: SR
T47D = system: T47D

Measured: GI50

COc1cc(C2C(C(=O)O)=C(CO)Oc3cc4c(cc32)OCO4)cc(OC)c1OC (stereo not given)
inactive: RXF 631 > 100 µM

NCCCNCCSSCc1ccccc1CSSCCNCCCN
inactive: RXF 631 > 100 µM | LXFL 529 30.4 µM

CN(C)c1ccc(N2C(=S)SC(=N\c3ccccc3)/C2=N/c2ccccc2)cc1
inactive: MDA-N > 100 µM | DU-145 > 100 µM | MDA-MB-435 > 100 µM | Hs-578T > 100 µM | SR > 100 µM | T47D > 100 µM

CC(NC(C#N)CC12CC3CC(CC(C3)C1)C2)c1ccccc1 (stereo not given)
inactive: MDA-N > 100 µM | DU-145 41.8 µM | MDA-MB-435 > 100 µM | SR 28.4 µM | T47D 52 µM

NC(=S)N/N=C1\c2ccccc2CCC1CCC1(O)CCc2ccccc2C1=O (stereo not given)
inactive: MDA-N 25.2 µM | DU-145 37.8 µM | MDA-MB-435 20.9 µM | Hs-578T 16.1 µM | SR 35.2 µM | T47D 4.04 µM

COC(=O)C1=C(OC(=O)/C=C/c2ccc(Cl)cc2)C(C(=O)OC)[C@@]2(O)[C@@H](C(=O)OC)[C@H](C)C[C@@H]1[C@@H]2C(=O)OC (stereo not given in full)
inactive: MDA-N 10.4 µM | DU-145 39.4 µM | MDA-MB-435 14.9 µM | Hs-578T 3.9 µM | T47D 26.1 µM

COc1ccc(C(=O)/C(Br)=C/C(=O)O)cc1
inactive: MDA-N 20 µM | DU-145 32 µM | MDA-MB-435 25.8 µM | SR 25.1 µM | T47D 53.2 µM

Source: ChEMBL document CHEMBL1201862, “PubChem BioAssay data set” (2004)
